Measurements published in PubChem BioAssay (NCI).
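Dose response: 5 concentrations. Exposure: 48 h. Format: 96-well plates. Endpoint: linear interpolation; highest concentration if not reached. Abbreviation: GI50, concentration required for 50% inhibition of growth. TGI: concentration producing complete growth inhibition.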

Experiments:
Assay in all cases: NCI anticancer screen, dose series, 48 h
786-0 renal = system: 786-0 renal
HOP-62 NSCLC = system: HOP-62 NSCLC
MDA-MB-435 = system: MDA-MB-435
MCF7 breast = system: MCF7 breast
SF-295 CNS = system: SF-295 CNS
MOLT-4 leukemia = system: MOLT-4 leukemia
EKVX NSCLC = system: EKVX NSCLC
MALME-3M melanoma = system: MALME-3M melanoma
UO-31 renal = system: UO-31 renal
HL-60(TB) leukemia = system: HL-60(TB) leukemia
HCT-15 colon = system: HCT-15 colon
A498 renal = system: A498 renal
SW-620 colon = system: SW-620 colon
IGROV1 ovarian = system: IGROV1 ovarian
SF-268 CNS = system: SF-268 CNS
OVCAR-5 ovarian = system: OVCAR-5 ovarian
SK-OV-3 ovarian = system: SK-OV-3 ovarian
LOX IMVI melanoma = system: LOX IMVI melanoma
ACHN renal = system: ACHN renal
CCRF-CEM leukemia = system: CCRF-CEM leukemia
TK-10 renal = system: TK-10 renal
SNB-19 CNS = system: SNB-19 CNS
DU-145 prostate = system: DU-145 prostate
COLO 205 colon = system: COLO 205 colon
NCI-H522 lung = system: NCI-H522 lung
HCT-116 colon = system: HCT-116 colon
NCI/ADR-RES ovarian = system: NCI/ADR-RES ovarian
PC-3 prostate = system: PC-3 prostate
HS 578T breast = system: HS 578T breast
T-47D breast = system: T-47D breast
M14 melanoma = system: M14 melanoma
SN12C renal = system: SN12C renal
OVCAR-4 ovarian = system: OVCAR-4 ovarian
SK-MEL-28 melanoma = system: SK-MEL-28 melanoma
K-562 leukemia = system: K-562 leukemia
BT-549 breast = system: BT-549 breast
OVCAR-8 ovarian = system: OVCAR-8 ovarian
RPMI-8226 leukemia = system: RPMI-8226 leukemia
SK-MEL-5 melanoma = system: SK-MEL-5 melanoma
SK-MEL-2 melanoma = system: SK-MEL-2 melanoma
NCI-H460 lung = system: NCI-H460 lung
CAKI-1 renal = system: CAKI-1 renal
OVCAR-3 ovarian = system: OVCAR-3 ovarian
A549 NSCLC = system: A549 NSCLC
SF-539 CNS = system: SF-539 CNS
MDA-MB-231 breast = system: MDA-MB-231 breast
HT29 colon = system: HT29 colon
UACC-257 melanoma = system: UACC-257 melanoma
UACC-62 melanoma = system: UACC-62 melanoma
SR leukemia = system: SR leukemia
HCC-2998 colon = system: HCC-2998 colon
HOP-92 NSCLC = system: HOP-92 NSCLC
SNB-75 CNS = system: SNB-75 CNS
KM12 colon = system: KM12 colon
U251 CNS = system: U251 CNS
NCI-H23 lung = system: NCI-H23 lung
NCI-H226 lung = system: NCI-H226 lung

Question: For `N#Cc1cnc2ccc(-c3cnc4n[nH]nc4c3)cc2c1N1CCc2cc(F)c(Cl)cc21`, which GI50 (786-0 renal) is on record?
Answer: 3.55 µM

Question: And the TGI (786-0 renal)?
Answer: > 100 µM

Question: And the GI50 (HOP-62 NSCLC)?
Answer: 3.45 µM

Question: And the TGI (HOP-62 NSCLC)?
Answer: 38.7 µM

Question: And the GI50 (MDA-MB-435)?
Answer: 3.73 µM

Question: What about the TGI (MDA-MB-435) of the same compound?
Answer: 28.6 µM

Question: What about the GI50 (MCF7 breast) of the same compound?
Answer: 1.92 µM

Question: What about the TGI (MCF7 breast) of the same compound?
Answer: 14 µM

Question: And the GI50 (SF-295 CNS)?
Answer: 2.54 µM

Question: And the TGI (SF-295 CNS)?
Answer: 13.3 µM

Question: What about the GI50 (MOLT-4 leukemia) of the same compound?
Answer: 2.8 µM

Question: What about the TGI (MOLT-4 leukemia) of the same compound?
Answer: 11.4 µM

Question: What about the GI50 (EKVX NSCLC) of the same compound?
Answer: 3.26 µM

Question: What about the TGI (EKVX NSCLC) of the same compound?
Answer: 18.5 µM

Question: And the GI50 (MALME-3M melanoma)?
Answer: 2.91 µM

Question: And the TGI (MALME-3M melanoma)?
Answer: 16.4 µM

Question: What about the GI50 (UO-31 renal) of the same compound?
Answer: 1.13 µM

Question: What about the TGI (UO-31 renal) of the same compound?
Answer: 11.1 µM

Question: And the GI50 (HL-60(TB) leukemia)?
Answer: 11.5 µM

Question: What about the TGI (HL-60(TB) leukemia) of the same compound?
Answer: 43.6 µM

Question: What about the GI50 (HCT-15 colon) of the same compound?
Answer: 2.71 µM

Question: And the TGI (HCT-15 colon)?
Answer: 14 µM

Question: What about the GI50 (A498 renal) of the same compound?
Answer: 1.87 µM

Question: What about the TGI (A498 renal) of the same compound?
Answer: 6.69 µM

Question: What about the GI50 (SW-620 colon) of the same compound?
Answer: 5.2 µM

Question: And the TGI (SW-620 colon)?
Answer: 24.6 µM

Question: What about the GI50 (IGROV1 ovarian) of the same compound?
Answer: 1.42 µM

Question: What about the TGI (IGROV1 ovarian) of the same compound?
Answer: 6.19 µM

Question: What about the GI50 (SF-268 CNS) of the same compound?
Answer: 3.22 µM

Question: What about the TGI (SF-268 CNS) of the same compound?
Answer: 84.6 µM

Question: What about the GI50 (OVCAR-5 ovarian) of the same compound?
Answer: 4.07 µM

Question: What about the TGI (OVCAR-5 ovarian) of the same compound?
Answer: 65.1 µM

Question: What about the GI50 (SK-OV-3 ovarian) of the same compound?
Answer: 3.52 µM

Question: What about the TGI (SK-OV-3 ovarian) of the same compound?
Answer: 19.2 µM

Question: And the GI50 (LOX IMVI melanoma)?
Answer: 1.76 µM

Question: What about the TGI (LOX IMVI melanoma) of the same compound?
Answer: 11.4 µM

Question: And the GI50 (ACHN renal)?
Answer: 3.62 µM

Question: And the TGI (ACHN renal)?
Answer: 15.3 µM

Question: What about the GI50 (CCRF-CEM leukemia) of the same compound?
Answer: 3.69 µM

Question: And the TGI (CCRF-CEM leukemia)?
Answer: 21.1 µM

Question: And the GI50 (TK-10 renal)?
Answer: 3.23 µM

Question: And the TGI (TK-10 renal)?
Answer: 28.6 µM

Question: What about the GI50 (SNB-19 CNS) of the same compound?
Answer: 3.9 µM

Question: What about the TGI (SNB-19 CNS) of the same compound?
Answer: 77.9 µM

Question: And the GI50 (DU-145 prostate)?
Answer: 4.25 µM

Question: And the TGI (DU-145 prostate)?
Answer: 66 µM

Question: What about the GI50 (COLO 205 colon) of the same compound?
Answer: 9.19 µM

Question: What about the TGI (COLO 205 colon) of the same compound?
Answer: 34.3 µM

Question: And the GI50 (NCI-H522 lung)?
Answer: 2.82 µM

Question: What about the TGI (NCI-H522 lung) of the same compound?
Answer: 16.7 µM

Question: And the GI50 (HCT-116 colon)?
Answer: 6.44 µM

Question: And the TGI (HCT-116 colon)?
Answer: 25.3 µM

Question: And the GI50 (NCI/ADR-RES ovarian)?
Answer: 12.8 µM

Question: What about the TGI (NCI/ADR-RES ovarian) of the same compound?
Answer: 53.3 µM

Question: What about the GI50 (PC-3 prostate) of the same compound?
Answer: 3.11 µM

Question: What about the TGI (PC-3 prostate) of the same compound?
Answer: 25.5 µM

Question: And the GI50 (HS 578T breast)?
Answer: 1.18 µM

Question: What about the TGI (HS 578T breast) of the same compound?
Answer: 5.26 µM

Question: What about the GI50 (T-47D breast) of the same compound?
Answer: 1.68 µM

Question: What about the TGI (T-47D breast) of the same compound?
Answer: 8 µM

Question: And the GI50 (M14 melanoma)?
Answer: 5.15 µM

Question: And the TGI (M14 melanoma)?
Answer: 38.2 µM

Question: And the GI50 (SN12C renal)?
Answer: 3.27 µM

Question: And the TGI (SN12C renal)?
Answer: 41.7 µM

Question: What about the GI50 (OVCAR-4 ovarian) of the same compound?
Answer: 2.66 µM

Question: What about the TGI (OVCAR-4 ovarian) of the same compound?
Answer: 22.3 µM

Question: What about the GI50 (SK-MEL-28 melanoma) of the same compound?
Answer: 3.68 µM

Question: What about the TGI (SK-MEL-28 melanoma) of the same compound?
Answer: 33.6 µM

Question: And the GI50 (K-562 leukemia)?
Answer: 4.67 µM

Question: What about the TGI (K-562 leukemia) of the same compound?
Answer: > 100 µM

Question: And the GI50 (BT-549 breast)?
Answer: 2.31 µM

Question: And the TGI (BT-549 breast)?
Answer: 14.6 µM

Question: What about the GI50 (OVCAR-8 ovarian) of the same compound?
Answer: 4.62 µM

Question: What about the TGI (OVCAR-8 ovarian) of the same compound?
Answer: > 100 µM

Question: And the GI50 (RPMI-8226 leukemia)?
Answer: 3.02 µM

Question: And the TGI (RPMI-8226 leukemia)?
Answer: 42.5 µM

Question: What about the GI50 (SK-MEL-5 melanoma) of the same compound?
Answer: 2.83 µM

Question: What about the TGI (SK-MEL-5 melanoma) of the same compound?
Answer: 8.47 µM

Question: What about the GI50 (SK-MEL-2 melanoma) of the same compound?
Answer: 2.74 µM

Question: And the TGI (SK-MEL-2 melanoma)?
Answer: 12.7 µM

Question: And the GI50 (NCI-H460 lung)?
Answer: 3.48 µM

Question: And the TGI (NCI-H460 lung)?
Answer: 17.4 µM

Question: What about the GI50 (CAKI-1 renal) of the same compound?
Answer: 2.99 µM

Question: And the TGI (CAKI-1 renal)?
Answer: 25.2 µM

Question: And the GI50 (OVCAR-3 ovarian)?
Answer: 2.97 µM

Question: And the TGI (OVCAR-3 ovarian)?
Answer: 24 µM

Question: What about the GI50 (A549 NSCLC) of the same compound?
Answer: 3.92 µM

Question: And the TGI (A549 NSCLC)?
Answer: 72.6 µM

Question: What about the GI50 (SF-539 CNS) of the same compound?
Answer: 3.17 µM

Question: What about the TGI (SF-539 CNS) of the same compound?
Answer: 18.9 µM

Question: What about the GI50 (MDA-MB-231 breast) of the same compound?
Answer: 3.64 µM

Question: What about the TGI (MDA-MB-231 breast) of the same compound?
Answer: 23.3 µM

Question: What about the GI50 (HT29 colon) of the same compound?
Answer: 5.73 µM

Question: And the TGI (HT29 colon)?
Answer: 35 µM

Question: What about the GI50 (UACC-257 melanoma) of the same compound?
Answer: 5.03 µM

Question: What about the TGI (UACC-257 melanoma) of the same compound?
Answer: 44.2 µM

Question: What about the GI50 (UACC-62 melanoma) of the same compound?
Answer: 2.63 µM

Question: What about the TGI (UACC-62 melanoma) of the same compound?
Answer: 12.6 µM

Question: What about the GI50 (SR leukemia) of the same compound?
Answer: 2.3 µM

Question: And the TGI (SR leukemia)?
Answer: 25.8 µM

Question: What about the GI50 (HCC-2998 colon) of the same compound?
Answer: 2.85 µM

Question: And the TGI (HCC-2998 colon)?
Answer: 14.9 µM

Question: And the GI50 (HOP-92 NSCLC)?
Answer: 1.83 µM

Question: And the TGI (HOP-92 NSCLC)?
Answer: 7.97 µM

Question: And the GI50 (SNB-75 CNS)?
Answer: 0.395 µM

Question: What about the TGI (SNB-75 CNS) of the same compound?
Answer: 5.52 µM

Question: And the GI50 (KM12 colon)?
Answer: 4.66 µM

Question: What about the TGI (KM12 colon) of the same compound?
Answer: 32.3 µM

Question: And the GI50 (U251 CNS)?
Answer: 4.66 µM

Question: And the TGI (U251 CNS)?
Answer: 86.6 µM

Question: And the GI50 (NCI-H23 lung)?
Answer: 3.16 µM

Question: And the TGI (NCI-H23 lung)?
Answer: 16.1 µM

Question: What about the GI50 (NCI-H226 lung) of the same compound?
Answer: 2.2 µM

Question: What about the TGI (NCI-H226 lung) of the same compound?
Answer: 20 µM
